Values joined by “and” are separate entries in the source; they are usually repeats but may differ in a detail not shown here. Identical values can stand only once. Inconclusive results and toxic doses are left out. Rule as the data show it: active = T/C of 150% or more; inactive = T/C below 125%.
Tested on: L1210 leukemia ip in BDF1 mice, survival T/C
Experiment: NCI In Vivo Anticancer Drug Screen. Data for tumor model L1210 Leukemia (intraperitoneal) in B6D2F1 (BDF1) mice
Settings: endpoint: mean survival time, higher = longer survival
Outline: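 Survival endpoint. Drug-treated group vs vehicle group, expressed as T divided by C. Tumor passaged by transplantation.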

[1] = dose: 100.0 mg/kg/injection, schedule: Q01DX001 (ip), vehicle: saline
[2] = dose: 200.0 mg/kg/injection, schedule: Q01DX001 (ip), vehicle: saline
[3] = dose: 100.0 mg/kg/injection, schedule: Q04DX003 (ip), vehicle: saline with Tween-80
[4] = dose: 200.0 mg/kg/injection, schedule: Q04DX003 (ip), vehicle: saline with Tween-80
[5] = dose: 100.0 mg/kg/injection, schedule: Q04DX003 (ip), vehicle: saline
[6] = dose: 200.0 mg/kg/injection, schedule: Q04DX003 (ip), vehicle: saline
[7] = dose: 400.0 mg/kg/injection, schedule: Q04DX003 (ip), vehicle: saline

Measured: T/C

O=NN(CCCl)C(=O)NC(C(=O)O)C1CCCCC1 (configuration not stated)
active: dose: 12.0 mg/kg/injection, schedule: Q01DX001 (ip), vehicle: saline with Tween-80 171 % of control | dose: 26.0 mg/kg/injection, schedule: Q01DX001 (ip), vehicle: saline with Tween-80 153 % of control | dose: 40.0 mg/kg/injection, schedule: Q01DX001 (ip), vehicle: saline with Tween-80 253 % of control | dose: 60.0 mg/kg/injection, schedule: Q01DX001 (ip), vehicle: saline with Tween-80 412 % of control | dose: 90.0 mg/kg/injection, schedule: Q01DX001 (ip), vehicle: saline with Tween-80 482 % of control | dose: 133.0 mg/kg/injection, schedule: Q01DX001 (ip), vehicle: saline with Tween-80 266 % of control
inactive: dose: 8.0 mg/kg/injection, schedule: Q01DX001 (ip), vehicle: saline with Tween-80 118 % of control

CC(=O)CC(=O)Nc1cccc(NC(=O)CC(C)=O)c1
inactive: dose: 100.0 mg/kg/injection, schedule: Q01DX001 (ip), vehicle: Klucel (hydroxypropylcellulose) (HPC) 99 % of control | dose: 200.0 mg/kg/injection, schedule: Q01DX001 (ip), vehicle: Klucel (hydroxypropylcellulose) (HPC) 94 % of control | dose: 400.0 mg/kg/injection, schedule: Q01DX001 (ip), vehicle: Klucel (hydroxypropylcellulose) (HPC) 101 % of control

CCN(CC)CCOC(=O)c1[nH]cnc1/N=N\N(C)C
inactive: [1] 104 % of control | [2] 98 % of control

CCOc1c(N2CCOCC2)c(=O)c1=O
inactive: dose: 100.0 mg/kg/injection, schedule: Q01DX009 (ip), vehicle: saline with Tween-80 103 % of control | [3] 93 % of control | dose: 200.0 mg/kg/injection, schedule: Q01DX009 (ip), vehicle: saline with Tween-80 97 % of control | [4] 101 % of control | dose: 400.0 mg/kg/injection, schedule: Q01DX009 (ip), vehicle: saline with Tween-80 91 % of control | dose: 400.0 mg/kg/injection, schedule: Q04DX003 (ip), vehicle: saline with Tween-80 93 % of control

CCC(CO)NC(=O)C(O)C(O)C(O)C(O)CO (configuration not stated)
inactive: [5] 94 % of control | [6] 97 % of control | [7] 94 % of control

CCCCN(C)N=Nc1c(C(N)=O)n[nH]c1C
active: dose: 45.0 mg/kg/injection, schedule: Q01DX009 (ip), vehicle: Klucel (hydroxypropylcellulose) (HPC) 150 % of control
inactive: dose: 1.0 mg/kg/injection, schedule: Q03HX008 (ip), vehicle: Klucel (hydroxypropylcellulose) (HPC) 93 % of control | dose: 2.0 mg/kg/injection, schedule: Q03HX008 (ip), vehicle: Klucel (hydroxypropylcellulose) (HPC) 99 % of control | dose: 4.0 mg/kg/injection, schedule: Q03HX008 (ip), vehicle: Klucel (hydroxypropylcellulose) (HPC) 100 % of control | dose: 4.0 mg/kg/injection, schedule: Q03HX016 (ip), vehicle: Klucel (hydroxypropylcellulose) (HPC) 99 % of control | dose: 4.0 mg/kg/injection, schedule: Q03HX024 (ip), vehicle: Klucel (hydroxypropylcellulose) (HPC) 107 % of control | dose: 8.0 mg/kg/injection, schedule: Q01DX009 (ip), vehicle: Klucel (hydroxypropylcellulose) (HPC) 102 % of control | dose: 8.0 mg/kg/injection, schedule: Q03HX008 (ip), vehicle: Klucel (hydroxypropylcellulose) (HPC) 102 % of control | dose: 8.0 mg/kg/injection, schedule: Q03HX016 (ip), vehicle: Klucel (hydroxypropylcellulose) (HPC) 100 % of control | dose: 8.0 mg/kg/injection, schedule: Q03HX024 (ip), vehicle: Klucel (hydroxypropylcellulose) (HPC) 108 % of control | dose: 8.8 mg/kg/injection, schedule: Q01DX007 (ip), vehicle: Klucel (hydroxypropylcellulose) (HPC) 114 % of control | dose: 10.0 mg/kg/injection, schedule: Q01DX009 (ip), vehicle: Klucel (hydroxypropylcellulose) (HPC) 109 % of control | dose: 13.2 mg/kg/injection, schedule: Q01DX007 (ip), vehicle: Klucel (hydroxypropylcellulose) (HPC) 120 % of control | dose: 15.0 mg/kg/injection, schedule: Q01DX009 (ip), vehicle: Klucel (hydroxypropylcellulose) (HPC) 111 % of control | dose: 16.0 mg/kg/injection, schedule: Q01DX009 (ip), vehicle: Klucel (hydroxypropylcellulose) (HPC) 114 % of control | dose: 16.0 mg/kg/injection, schedule: Q03HX016 (ip), vehicle: Klucel (hydroxypropylcellulose) (HPC) 119 % of control | dose: 32.0 mg/kg/injection, schedule: Q01DX001 (ip), vehicle: Klucel (hydroxypropylcellulose) (HPC) 101 % of control | dose: 32.0 mg/kg/injection, schedule: Q03HX024 (ip), vehicle: Klucel (hydroxypropylcellulose) (HPC) 105 % of control | dose: 32.0 mg/kg/injection, schedule: Q04DX003 (ip), vehicle: Klucel (hydroxypropylcellulose) (HPC) 105 % of control | dose: 32.0 mg/kg/injection, schedule: Q08DX002 (ip), vehicle: Klucel (hydroxypropylcellulose) (HPC) 105 % of control | dose: 64.0 mg/kg/injection, schedule: Q01DX001 (ip), vehicle: Klucel (hydroxypropylcellulose) (HPC) 105 % of control | dose: 64.0 mg/kg/injection, schedule: Q04DX003 (ip), vehicle: Klucel (hydroxypropylcellulose) (HPC) 119 % of control | dose: 64.0 mg/kg/injection, schedule: Q08DX002 (ip), vehicle: Klucel (hydroxypropylcellulose) (HPC) 115 % of control | dose: 67.5 mg/kg/injection, schedule: Q01DX009 (ip), vehicle: Klucel (hydroxypropylcellulose) (HPC) 113 % of control | dose: 128.0 mg/kg/injection, schedule: Q01DX001 (ip), vehicle: Klucel (hydroxypropylcellulose) (HPC) 121 % of control | dose: 128.0 mg/kg/injection, schedule: Q08DX002 (ip), vehicle: Klucel (hydroxypropylcellulose) (HPC) 124 % of control | dose: 177.0 mg/kg/injection, schedule: Q01DX001 (ip), vehicle: carboxymethylcellulose (CMC) 124 % of control

CCSC1OC(CO)C(O)C1Nc1ccc([N+](=O)[O-])cc1[N+](=O)[O-] (configuration not stated)
inactive: dose: 50.0 mg/kg/injection, schedule: Q01DX001 (ip), vehicle: carboxymethylcellulose (CMC) 89 % of control | dose: 100.0 mg/kg/injection, schedule: Q01DX001 (ip), vehicle: carboxymethylcellulose (CMC) 94 % of control

O=S(=O)(F)c1ccc(Cl)cc1CBr
inactive: dose: 100.0 mg/kg/injection, schedule: Q04DX002 (ip), vehicle: saline with Tween-80 107 % of control | dose: 200.0 mg/kg/injection, schedule: Q04DX002 (ip), vehicle: saline with Tween-80 101 % of control | dose: 400.0 mg/kg/injection, schedule: Q04DX002 (ip), vehicle: saline with Tween-80 92 % of control

Cc1cc(C)c(SSc2c(C)cc(C)cc2C)c(C)c1
inactive: dose: 50.0 mg/kg/injection, schedule: Q01DX001 (ip), vehicle: saline 106 % of control | [1] 104 % of control | [2] 100 % of control

CC(Oc1ccccc1)C(=O)NC(=S)Nc1cc(C(F)(F)F)ccc1Cl (configuration not stated)
inactive: dose: 50.0 mg/kg/injection, schedule: Q01DX009 (ip), vehicle: other 101 % of control and 103 % of control | dose: 100.0 mg/kg/injection, schedule: Q01DX001 (ip), vehicle: other 105 % of control | dose: 100.0 mg/kg/injection, schedule: Q01DX009 (ip), vehicle: other 100 % of control and 92 % of control | dose: 100.0 mg/kg/injection, schedule: Q04DX002 (ip), vehicle: other 97 % of control and 110 % of control | dose: 200.0 mg/kg/injection, schedule: Q01DX001 (ip), vehicle: other 100 % of control | dose: 200.0 mg/kg/injection, schedule: Q01DX009 (ip), vehicle: other 95 % of control and 92 % of control | dose: 200.0 mg/kg/injection, schedule: Q04DX002 (ip), vehicle: other 98 % of control and 106 % of control | dose: 400.0 mg/kg/injection, schedule: Q01DX001 (ip), vehicle: other 94 % of control | dose: 400.0 mg/kg/injection, schedule: Q01DX009 (ip), vehicle: other 87 % of control | dose: 400.0 mg/kg/injection, schedule: Q04DX002 (ip), vehicle: other 97 % of control and 116 % of control

CC(=O)c1ccccc1OC(=S)N(C)C
inactive: [3] 87 % of control | [4] 95 % of control

CC(C)(O)CCC1=C(O)c2ccccc2C(=O)C1=O
inactive: dose: 100.0 mg/kg/injection, schedule: Q04DX003 (ip), vehicle: Klucel (hydroxypropylcellulose) (HPC) 100 % of control | dose: 200.0 mg/kg/injection, schedule: Q04DX003 (ip), vehicle: Klucel (hydroxypropylcellulose) (HPC) 94 % of control

O=C(Nc1ccccc1)Sc1ccccc1
inactive: dose: 62.5 mg/kg/injection, schedule: Q01DX001 (ip), vehicle: Klucel (hydroxypropylcellulose) (HPC) 97 % of control

CC(=O)Nc1ccc(NC(=O)Nc2cc(Cl)ccc2C)cc1
inactive: dose: 100.0 mg/kg/injection, schedule: Q01DX009 (ip), vehicle: Klucel (hydroxypropylcellulose) (HPC) 91 % of control | dose: 200.0 mg/kg/injection, schedule: Q01DX009 (ip), vehicle: Klucel (hydroxypropylcellulose) (HPC) 93 % of control | dose: 400.0 mg/kg/injection, schedule: Q01DX009 (ip), vehicle: Klucel (hydroxypropylcellulose) (HPC) 96 % of control

C=C(CC)C(=O)OCC
inactive: [5] 105 % of control | [6] 94 % of control | [7] 96 % of control
